Among the data in PubChem BioAssay (NCI) are TGI and GI50 values, retold here.

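Assay format: 96-well plates, 48-hour exposure. GI50: concentration for 50% inhibition of growth. TGI: total growth inhibition.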

Holding throughout (test): DTP human tumour cell line panel, 48 h
The subject of assay [1] is HCT-15 colon.
Assay [2] deals with UACC-62 melanoma.
The test system of assay [3] is SF-295 CNS.
In assay [4] the test system is KM12 colon.
Assay [5] concerns A549 NSCLC.
Assay [6] concerns SK-OV-3 ovarian.
For assay [7], the system named is MDA-MB-231 breast.
In assay [8] the test system is MDA-MB-435.
Assay [9] relates to PC-3 prostate.
In assay [10] the test system is NCI/ADR-RES ovarian.

For `CC(=O)OCC1OC(n2cc([N+](=O)[O-])c(=O)[nH]c2=O)C(OC(C)=O)C(OC(C)=O)C1OC(C)=O` (stereo not drawn), the concentration for total growth inhibition (TGI) in [1], in [2], in assay [3], in assay [4], in assay [5] and in assay [6] was > 100 µM throughout.
In the case of `C=CCOC(=O)CC[N+]1=CCC(c2ccccc2)(c2ccccc2)O1`, the TGI in assay [7], in assay [1], in [2], in assay [3], in [4] and in assay [8] was > 100 µM each time. For the same compound, the TGI in assay [5], in assay [9] and in assay [6] was > 100 µM in each case.
Consider `O=C(CNc1ccccc1Cl)Nn1c(-c2ccccc2)nc2ccccc2c1=O`, for which the TGI – broadly, the concentration at which net growth stops – in assay [7] was > 10 µM; in assay [2] it was > 10 µM; in assay [3], 91.1 µM; in [4], 87.1 µM; in assay [8] it was 37.4 µM; in [5] it was > 100 µM. Moreover, the TGI in assay [9] is 99 µM; in [6] it was > 100 µM.
As to `CC(=O)N(C(C)=O)C1=C2c3ccccc3N(S(=O)(=O)c3ccccc3)C2n2c(=O)n(-c3ccccc3)c(=O)n2C1` (stereo not drawn), the concentration for total growth inhibition (TGI) is > 100 µM in assay [1]; 35.8 µM in [2]; > 100 µM in assay [3]; > 100 µM in [4]; > 100 µM in [5]; > 100 µM in assay [6].
Consider `C=CCNC(=S)/N=C/c1c(O)c2ccccc2oc1=O`, for which the TGI in [1], in assay [2], in [3], in assay [4], in [5] and in [6] was > 100 µM in each case.
Turning to `Cc1cn(C2OC(C)(CO)C(O)C2O)c(=O)[nH]c1=O` (stereo not drawn), the TGI in [1], in assay [2], in assay [3], in assay [4], in assay [5] and in assay [6] was > 100 µM in each case.
Regarding `N#C/C(=C\c1cc(Br)c(O)c(Br)c1)c1cccnc1`, the TGI in assay [1] was 44 µM; in assay [2], > 100 µM; in assay [3], 46.7 µM; in assay [4] it was > 100 µM; in assay [5], > 100 µM; in assay [10], 59.1 µM. Moreover, the TGI in assay [9] is 69.7 µM; in [6], > 100 µM.
Turning to `N=S(c1ccccc1)c1ccccc1[N+](=O)[O-]` (stereo not drawn), the TGI in assay [1] turned out to be 30.4 µM; in assay [2] it was 36.2 µM; in [3], 36.7 µM; in [4] it was 32.7 µM; in assay [5] it was 32.1 µM; in assay [6], 84.6 µM.
On to `Cc1c(S(=O)(=O)/N=C(\N)Nc2ccc(Cl)cc2)sc2ccc(Cl)cc12`, for which the TGI in [7] was 32.9 µM; in assay [1], 44.6 µM; in [2], 45.4 µM; in assay [3] it was 46.7 µM; in [4] it was > 100 µM; in assay [5], 46.8 µM. Further, the TGI came to 47.1 µM in [10], 28.2 µM in assay [9] and 86.8 µM in assay [6].
Consider `COc1cc(C2CC(C)(Nc3ccccc3)Oc3cc4c(cc32)OCO4)cc(OC)c1OC` (stereo not drawn), for which the TGI in [7] is 4.34 µM; in [1] it was > 100 µM; in [2], > 100 µM; in assay [3], 3.57 µM; in assay [4], > 37.5 µM; in assay [8], 0.0688 µM. Moreover, the TGI in assay [5] was > 100 µM; in [9] it was > 100 µM; in assay [6], 25.9 µM.
On to `Cc1cc(=O)c2c([nH]1)NS(=O)(=O)NC2=O`, for which the TGI in assay [1], in assay [2], in assay [3], in assay [4], in [5] and in assay [6] was > 100 µM in each case.
`CCOC(=O)NC(=S)NN(C)C1=NCC(C)(C)S1`: the TGI in assay [7], in [1], in assay [2], in assay [3], in assay [4] and in assay [8] was > 100 µM in each case. The TGI in assay [5], in [9] and in [6] was > 100 µM throughout.
On to `Cc1ccccc1C(O)(c1nccn1C)c1nccn1C`, for which the TGI in assay [1], in assay [2], in assay [3], in assay [4], in assay [8] and in assay [5] was > 100 µM in each case. For the same compound, the TGI in assay [10], in assay [9] and in assay [6] was > 100 µM each time.
Take `BrC/C=C/C[P+](c1ccccc1)(c1ccccc1)c1ccccc1`: the TGI in assay [2] was 52.3 µM; in assay [3] it was 60.6 µM; in assay [4], 14.7 µM; in [5], > 100 µM; in [6] it was > 100 µM.
As for `CS(=O)(=O)OCCn1c(=O)n(CCOS(C)(=O)=O)c(=O)n(CCOS(C)(=O)=O)c1=O`, the TGI in [7], in [1], in assay [2], in assay [3], in [4] and in assay [8] was > 100 µM in each case. In addition, the TGI in [5], in assay [10] and in assay [6] was > 100 µM in each case.
As to `Cc1cc2[nH]c3[nH]c(=O)[nH]c(=O)c3c2cc1C`, the TGI in assay [7], in assay [1], in [2], in assay [3], in assay [4] and in [8] was > 100 µM each time. For the same compound, the TGI in assay [5], in [10] and in [6] was > 100 µM throughout.
In the case of `CC(=O)O[C@]12CCCCCC1C1(O)C(O)CCC[C@H]12` (stereo partly drawn), the total growth inhibition concentration (TGI) in [1], in [2], in [3], in assay [4], in assay [5] and in assay [6] was > 100 µM each time.
Turning to `O=C(NC(Cc1ccc(I)cc1)C(=O)O)c1ccc(I)cc1` (stereo not drawn), the TGI in assay [1] is > 100 µM; in [2], > 82.1 µM; in assay [3], > 100 µM; in assay [4], > 100 µM; in [5], > 100 µM; in assay [10], > 100 µM. Besides, the TGI in assay [6] was > 100 µM.
As for `COCOc1ccc(Cn2c(=O)n(C)c(=O)c3c2ncn3C)cc1[N+](=O)[O-]`, the TGI in [1], in [2], in [3], in assay [4], in assay [5] and in assay [6] was > 100 µM in each case.
Turning to `C=C[C@@H]1C(CO)=CCC2[C@H]1CCC1C(C)(C)C(=O)CC[C@]21C` (stereo partly drawn), the TGI in [1], in assay [2], in [3], in [4], in assay [8] and in assay [5] was > 100 µM in each case. Also, the TGI in [10], in assay [9] and in [6] was > 100 µM each time.
On to `c1ccc2c(c1)NC(C1OC3CCCN3C1C1Nc3ccccc3S1)S2` (stereo not drawn), for which the total growth inhibition concentration (TGI) in [1], in [2], in [3], in [4], in assay [8] and in assay [5] was > 100 µM each time. For the same compound, the concentration for total growth inhibition (TGI) in [9] and in assay [6] was > 100 µM throughout.
As to `COc1cc([N+](=O)[O-])c(OC)cc1-c1nc2sc(Cl)cn2c1/C=N/Nc1ccccn1`, the GI50 (as a rule, the concentration at which growth is held to half of that of the control) was 8.61 µM in assay [7]; 28.1 µM in [1]; 26 µM in assay [2]; 12.4 µM in [3]; > 50 µM in assay [4]; > 50 µM in [8]. The GI50 in assay [5] was > 50 µM; in assay [9], 16.4 µM; in assay [6], 9.11 µM. The TGI was 30.7 µM in assay [7]; > 50 µM in assay [1]; > 50 µM in assay [2]; 41.8 µM in assay [3]; > 50 µM in [4]; > 50 µM in assay [8]. Moreover, the TGI in assay [5] is > 50 µM; in assay [9], > 50 µM; in [6] it was 16.5 µM.
With `O=C(NCCCN(CCCCN(CCCNC(=O)C(F)(F)F)Cc1ccccc1)Cc1ccccc1)C(F)(F)F`, the total growth inhibition concentration (TGI) turned out to be 34.1 µM in assay [7]; 24.9 µM in [1]; 30.6 µM in assay [2]; 30 µM in assay [3]; 25.9 µM in assay [4]; 33.9 µM in assay [8]. Further, the TGI in assay [5] turned out to be 59.5 µM; in assay [10], 30.1 µM; in assay [6], 36.1 µM.
Take `CC(C(=O)n1nnc2ccccc21)N(c1ccccc1)c1ccccc1` (stereo not drawn): the TGI in [1], in [2], in assay [3], in [5] and in assay [6] was > 100 µM in each case.
